Test results from patent US20250288557A1, “FORMULATION AND METHOD FOR TREATMENT OF INFECTIONS” (priority 2022, published 2025).
Read-outs that look alike come from different tables or passages of the source.

Tested on: Piglets
Settings: for Mortality (%): (number of dead pigs/number of pigs enrolled)x100; for Clinical observations (%): percentage of pigs expressing clinical signs suggestive of product(s) side-effects: po
Description: Safety Study: Studies for safety were conducted. The trials assessed the active ingredients individually and according to various combinations.
Example Safety Study: The following provides the procedure(s) and data collected from the exemplary safety study.
Six different sets of pigs were tested with six different formulations: • 1. […] Statin or Atorvastatin (1.6 mg/dose) • 3. Indomethacin (3.64 mg/dose) • 4. Doxycycline (6 mg/dose) • 5. Cimetidine (18 mg/dose) • 6. Positive control (compounded formulation of Atorvastatin, Indomethacin, […], Doxycycline, and Cimetidine)
Methods: A sow farm negative for Porcine Reproductive and Respiratory Syndrome virus (PRRSv) and Mycoplasma hyopneumoniae and experiencing little to no piglet enteric health challenges was enrolled for the study. Piglets (12-14 days of age) orally received one of the six formulations identified above. When receiving a formulation, 1 mL of assigned treatment was obtained and provided to the Piglets.
At d0 and d1, pen-level fecal consistency was studied. At d1, piglet mortality was recorded.
Fecal scores: Average fecal score (pen-level). Fecal scours 0, 1, 2, and 3 corresponded to normal, pasty, semi-liquid, and liquid feces, respectively, with scores of ≥2 corresponding to diarrhea.
Mortality: %=(number of dead pigs/number of pigs enrolled)×100.

COc1ccc2c(c1)c(CC(=O)O)c(C)n2C(=O)c1ccc(Cl)cc1 [Indomethacin]
Mortality (%) (d 0): 0.0% | Mortality (%) (d 1): 0.0% | Fecal scores: average fecal score (pen-level) (pig, in vivo): 0.0 | Palatability (%): percentage of pigs expressing clinical signs suggestive of poor palatability (pig, in vivo): 0.0% | Fecal scores: average fecal score (pen-level) (pig, in vivo, 1 day): 0.0 | Clinical observations (%): percentage of pigs expressing clinical signs suggestive of product(s) side-effects (pig, in vivo, 0 day): 0.0% | Clinical observations (%): percentage of pigs expressing clinical signs suggestive of product(s) side-effects (pig, in vivo, 24 h): 0.0%

C[C@H]1c2cccc(O)c2C(=O)C2=C(O)[C@]3(O)C(=O)C(C(N)=O)=C(O)[C@@H](N(C)C)[C@@H]3[C@@H](O)[C@@H]21 [Doxycycline]
Mortality (%) (d 0): 0.0% | Mortality (%) (d 1): 0.0% | Fecal scores: average fecal score (pen-level) (pig, in vivo): 0.0 | Palatability (%): percentage of pigs expressing clinical signs suggestive of poor palatability (pig, in vivo): 0.0% | Fecal scores: average fecal score (pen-level) (pig, in vivo, 1 day): 0.0 | Clinical observations (%): percentage of pigs expressing clinical signs suggestive of product(s) side-effects (pig, in vivo, 0 day): 0.0% | Clinical observations (%): percentage of pigs expressing clinical signs suggestive of product(s) side-effects (pig, in vivo, 24 h): 0.0%

CN/C(=N/CCSCc1nc[nH]c1C)NC#N [Cimetidine]
Mortality (%) (d 0): 0.0% | Mortality (%) (d 1): 0.0% | Fecal scores: average fecal score (pen-level) (pig, in vivo): 0.0 | Palatability (%): percentage of pigs expressing clinical signs suggestive of poor palatability (pig, in vivo): 0.0% | Fecal scores: average fecal score (pen-level) (pig, in vivo, 1 day): 0.0 | Clinical observations (%): percentage of pigs expressing clinical signs suggestive of product(s) side-effects (pig, in vivo, 0 day): 0.0% | Clinical observations (%): percentage of pigs expressing clinical signs suggestive of product(s) side-effects (pig, in vivo, 24 h): 0.0%

CC(C)c1c(C(=O)Nc2ccccc2)c(-c2ccccc2)c(-c2ccc(F)cc2)n1CC[C@@H](O)C[C@@H](O)CC(=O)O [Atorvastatin]
Mortality (%) (d 0): 0.0% | Mortality (%) (d 1): 0.0% | Fecal score of a single litter (pig, in vivo): 1 | Fecal scores: average fecal score (pen-level) (pig, in vivo): 0.5 | Palatability (%): percentage of pigs expressing clinical signs suggestive of poor palatability (pig, in vivo): 0.0% | Fecal scores: average fecal score (pen-level) (pig, in vivo, 1 day): 0.0 | Clinical observations (%): percentage of pigs expressing clinical signs suggestive of product(s) side-effects (pig, in vivo, 0 day): 0.0% | Clinical observations (%): percentage of pigs expressing clinical signs suggestive of product(s) side-effects (pig, in vivo, 24 h): 0.0%
